“Also recorded” adds a separate entry of the source.
What was measured:
[1] = test system: H9 cells; test: Survival/viability of HIV-infected H9 cells (trypan blue exclusion), % control; conditions: for viability at 0.01 µg/mL / viability at 0.1 µg/mL / viability at 1 µg/mL / viability at 10 µg/mL / viability at 5 µg/mL: Homo sapiens, H9, 96 h, read-out: Cell Survival (% Control); for viability of cells in the presence of HIV (in words): in vitro
[2] = Solubility; type: physicochemical; conditions: Tables I-III
[3] = test system: HIV virus; conditions: for inhibition of viral replication (in words): about 1 μg/ml; for activity against HIV / inhibition of viral replication (in words): in vitro
[4] = test system: target cells; test: Toxicity to the cells; type: cell-based

With C[C@@H]1[C@H](O)[C@@H](C)/C=C/C=C/CC/C=C/C=C/C=C/C=C/[C@H](O[C@@H]2O[C@H](C)[C@@H](O)[C@H](N)[C@@H]2O)C[C@@H]2O[C@](O)(C[C@@H](O)C[C@@H](O)[C@H](O)CC[C@@H](O)C[C@@H](O)CC(=O)O[C@H]1C)C[C@H](O)[C@H]2C(=O)O [Amphotericin A, reference compound] the “Cell Survival (% Control)” value ([1]; Table IV, conc. not printed (line between 10 and 0.1), added with HIV, 4 days) was 75 % Control.
In the case of C[C@@H]1[C@H](O)[C@@H](C)/C=C/C=C/C=C/C=C/C=C/C=C/C=C/[C@H](O[C@@H]2O[C@H](C)[C@@H](O)[C@H](N)[C@@H]2O)C[C@@H]2O[C@](O)(C[C@@H](O)C[C@@H](O)[C@H](O)CC[C@@H](O)C[C@@H](O)CC(=O)O[C@H]1C)C[C@H](O)[C@H]2C(=O)O [Amphotericin B, reference compound], the viability at 0.01 µg/mL [1] is reported as 13%, the viability at 0.1 µg/mL [1] is reported as 11% and the viability at 1 µg/mL [1] is reported as 33%. The viability at 10 µg/mL [1] was 73%.
In the case of CC(C)C1OC(=O)/C=C/C=C/C=C/C=C/C=C/C=C/CC(O)C(C)C(O)CC(O)CC(O)CC(O)CC(O)CC(O)CC(O)CC(O)/C=C/C1C (stereo not drawn) [Dermostatin A], the Solubility [2] is reported as “Soluble in MeOH, DMSO, DMF; also recorded: Insoluble in H2 O, pet ether, hexane”, the “inhibition of viral replication (in words)” value [3] is reported as “high levels of inhibition to viral replication have been achieved” and the “activity against HIV / inhibition of viral replication (in words)” value (“activity against HIV / inhibition” for short) [3] is reported as “inhibit the ability of the HIV virus to replicate within the lymphocyte after penetration by the virus”. For the same compound, the viability at 0.01 µg/mL [1] was 0%, the viability at 0.1 µg/mL [1] was 18% and the viability at 1 µg/mL [1] was 92%. For the same compound, the viability at 5 µg/mL [1] was 99% and the “viability of cells in the presence of HIV (in words)” value [1] was “improve the viability of lymphocyte cells in the presence of HIV; also recorded: protective effect”.
In the case of CCC(C)C1OC(=O)/C=C/C=C/C=C/C=C/C=C/C=C/CC(O)C(C)C(O)CC(O)CC(O)CC(O)CC(O)CC(O)CC(O)CC(O)/C=C/C1C (stereo not drawn) [Dermostatin B], the Solubility [2] is reported as “Soluble in MeOH, DMSO, DMF; also recorded: Insoluble in H2 O, pet ether, hexane”, the “inhibition of viral replication (in words)” value [3] is reported as “high levels of inhibition to viral replication have been achieved” and the “activity against HIV / inhibition” value [3] is reported as “inhibit the ability of the HIV virus to replicate within the lymphocyte after penetration by the virus”. It also gave a viability at 0.01 µg/mL [1] of 0%, a viability at 0.1 µg/mL [1] of 0% and a viability at 1 µg/mL [1] of 87%. For the same compound, the viability at 5 µg/mL [1] was 97% and the “viability of cells in the presence of HIV (in words)” value [1] was “improve the viability of lymphocyte cells in the presence of HIV; also recorded: protective effect”.
In the case of CCCCC[C@@H](O)[C@H]1C(=O)O[C@H](C)[C@@H](O)/C=C/C=C/C=C/C=C/C=C(\C)[C@@H](O)C[C@H](O)C[C@H](O)C[C@H](O)C[C@H](O)C[C@H](O)C[C@@H]1O [Filipin, reference compound], the “activity against HIV / inhibition” value [3] is reported as “not active against HIV”, the viability at 0.1 µg/mL [1] is reported as 48% and the viability at 1 µg/mL [1] is reported as 51%. It also gave a viability at 10 µg/mL [1] of 49%.
In the case of Candicidin, the “toxicity to the cells (in words)” value [4] is reported as “toxic to the cells; also recorded: its own cytotoxic effects takes its toll on the target cells” and the “effect against HIV infection at noncytotoxic doses (in words)” value [3] is reported as “no advantage whatsoever is seen”.

Source: patent US5159002A, “Method for purifying dermostatin A and dermostatin B” (Xechem Inc., priority 1990, dated 1992)
